{
  "source": "patent US10624908B2",
  "about": "“Phosphopantetheine compounds alone or in combination with HMG-CoA reductase inhibitors for lowering serum cholesterol and serum triglicerides” (COMET THERAPEUTICS, INC., priority 2014, dated 2020)",
  "key": {"HEK293 cells": {"tested_on": "HEK293 cells", "experiment": "Rescue potential of CoA and 4′-phosphopantetheine in HOPAN assay", "assay_type": "cell-based, mammalian", "details": "HOPAN 0.5 mM, 250 μM compound, 4 days", "procedure": "Mammalian HEK293 cells treated with the chemical inhibitor HOPAN (hopanthenate, CAS 17097-76-6, IUPAC: calcium 4-[[(2R)-2,4-dihydroxy-3,3-dimethylbutanoyl]amino]butanoate). Cells treated with HOPAN show a reduction in intracellular CoA levels, which induces a decrease in cell viability.\nMaterials and Methods: HEK293 cells were cultured in vitamin B5 deficient DMEM (Thermo Scientific) supplemented with 10% dialysed FCS (Thermo Scientific) with and without HOPAN (0.5 mM) and CoA and 4′-phosphopantetheine for 4 days. 250 μM of CoA and 4′-phosphopantetheine was used for determination of rescue efficiency."}, "[1]": {"experiment": "Conversion of CoA into 4′-phosphopantetheine in human serum (HPLC)", "method": "(§1) Materials and Methods: CoA (purchased from Sigma) was incubated at a final concentration of 10 μM human serum for 6 hours at 37° C. After incubation, the samples were processed to remove proteins and HPLC analysis was used to assess the amount of remaining compound CoA and amount of generated 4′-phosphopantetheine, indicating conversion of CoA to 4′-phosphopantetheine."}, "[2]": {"experiment": "Translocation through cell membranes / uptake by cells", "assay_type": "cell-based"}, "[3]": {"details": "patients with moderate dyslipidemia; cited from earlier work"}, "[4]": {"details": "400 U Coenzyme A/day for 3 weeks combined with statins, oral; cited from earlier work"}, "[5]": {"details": "3 h, 10 μM", "method": "as §1"}},
  "data": [
    {"compound": "CC(C)(COP(=O)(O)O)[C@@H](O)C(=O)NCCC(=O)NCCS", "note": "[4′-phosphopantetheine]", "values": [
      {"measurement": "rescue of HOPAN induced cell count defect", "setting": "HEK293 cells; FIG. 2", "result": "rescued the cell count defect"},
      {"measurement": "rescue of HOPAN induced cell count defect", "setting": "HEK293 cells; FIG. 2, listed as 4PPT", "result": "as potent as CoA"},
      {"measurement": "rescue of HOPAN induced decrease of intracellular CoA levels", "setting": "HEK293 cells; FIG. 3", "result": "significantly rescued"},
      {"measurement": "rescue of HOPAN induced decrease of intracellular CoA levels", "setting": "HEK293 cells; FIG. 3, listed as 4PPT", "result": "as potent as CoA"},
      {"measurement": "stability in human serum", "setting": "[1]; human serum over 6 hours incubation", "result": "stable"},
      {"measurement": "concentrations of 4′-phosphopantetheine generated from CoA in human serum", "setting": "[1]; human serum, 37° C., 6 hours incubation of CoA, HPLC", "result": "observed to increase"},
      {"measurement": "translocation through cell membranes / uptake by cells", "setting": "[2]", "result": "able to effectively translocate through cell membranes"}
    ]},
    {"compound": "CC(C)(COP(=O)(O)OP(=O)(O)OC[C@H]1O[C@@H](n2cnc3c(N)ncnc32)[C@H](O)[C@@H]1OP(=O)(O)O)[C@@H](O)C(=O)NCCC(=O)NCCS", "note": "[CoA, Coenzyme A, reference compound]", "values": [
      {"measurement": "plasma triglyceride levels", "setting": "[3]", "result": "effectively reduce plasma triglyceride levels"},
      {"measurement": "rescue of HOPAN induced cell count defect", "setting": "HEK293 cells; FIG. 2", "result": "rescued the cell count defect"},
      {"measurement": "rescue of HOPAN induced decrease of intracellular CoA levels", "setting": "HEK293 cells; FIG. 3", "result": "significantly rescued"},
      {"measurement": "translocation through cell membranes / uptake by cells", "setting": "[2]", "result": "cells do not absorb CoA directly"},
      {"measurement": "toxicity", "setting": "[4]", "result": "no toxicity was observed"},
      {"measurement": "CoA degraded in human serum", "setting": "[5]", "result": 60, "unit": "%"}
    ]}
  ]
}
